Data published in article PMC8963105, “A Novel Modulator of the Renin–Angiotensin System, Benzoylaconitine, Attenuates Hypertension by Targeting ACE/ACE2 in Enhancing Vasodilation and Alleviating Vascular Inflammation” (Frontiers in Pharmacology, 2022).

Key:
rhACE2 = target: T1, rhACE2 (Homo sapiens, UniProt Q9BYF1); assay: SPR assay with rhACE2; type: binding; conditions: rhACE2 on chip, 5% DMSO–1.05× PBS
T1 construct: purchased Proteintech
Description: (§1) To screen the potential targets of the MDAs in hypertension, a CVDPlatform (www.cbligand.org/CVD) was used as previously reported ([Zhang et al., 2016a]). The results of database screening were verified by virtual docking with Discovery Studio 3.5 (BIOVIA, San Diego, CA, United States) and then validated in the SPR assay. In the SPR assay, a solution of protein standards was prepared, and the concentration of recombinant human ACE (rhACE) protein and rhACE2 (Proteintech, Rosemont, IL, United States) solution was set to 500 μg ml^−1. […] Finally, the level of binding between the proteins and each molecule was determined based on the K d value.

[1] = tested on: spontaneously hypertension rats (SHRs); assay: acute experiment: real-time blood pressure after i.v. injection in SHRs; type: in vivo, rat; conditions: for anti-hypertensive effect (in words): acute experiment, i.v. injection 0.6–6 mg kg^−1
Description: (§2) The SHRs were surgically implanted with a catheter via the left femoral artery, vein, and stomach after anesthetizing with 2% pentobarbital sodium (40 mg kg^−1 i.p.,). A pressure sensor was inserted into the terminal of the arterial catheter and connected to a PowerLab system (ADInstruments, New South Wales, Australia) for real-time blood pressure monitoring.
(§3) All three MDAs (BAC, BMC, and BHC) were purchased from Nature-Standard Co., Ltd. (Shanghai, China) and their purities were all over 98%. The anti-hypertensive effects of MDAs were studied in both acute and chronic experiments. The 16-week-old SHRs were used in animal experiments, and each group had six rats. In the acute experiment, drug administration was via i.v. injection. For i.v. injection, the animals were randomly assigned into four groups: vehicle (0.1% DMSO–0.9% salt solution, n = 6), low-dose group (0.6 mg kg^−1 body weight, n = 6), medium-dose group (2 mg kg^−1 body weight, n = 6), and high-dose group (6 mg kg^−1 body weight, n = 6). The drug was administered using a venous catheter. In chronic experiments, the animals were randomly assigned into five groups: vehicle (5% Tween 80–0.9% salt solution, n = 6), captopril group (5 mg kg^−1 body weight, n = 6), low-dose group (3 mg kg^−1 body weight, n = 6), medium-dose group (10 mg kg^−1 body weight, n = 6), and high-dose group (30 mg kg^−1 body weight, n = 6). Oral administration with drug or 5% Tween 80–0.9% salt solution was carried out once a day, and continued for 14 days. The drugs were dissolved in 0.1% DMSO–0.9% salt solution for intravenous injection and in 5% Tween 80–0.9% salt solution for oral administration. Blood pressure was recorded in real time.
(§4) Real-time blood pressure level was monitored after drug treatment in the acute and chronic experiments. All animals were surgically implanted with a catheter in the left femoral artery. After connection to the monitor, all animals were placed at room temperature of 25°C for 0.5–1 h and the average blood pressure value was calculated based on a real-time blood pressure curve (10 s of every 30 s).

[2] = target: T2, recombinant human ACE (rhACE) (Homo sapiens, UniProt P12821); assay: SPR assay with rhACE; type: binding; conditions: rhACE on chip, 5% DMSO–1.05× PBS
T2 construct: purchased Proteintech
Description: as §1

rhACE = rhACE (Homo sapiens, UniProt P12821); assay: ACE activity assay kit (enzyme kinetics, cell-free); type: biochemical
Description: (§5) ACE and ACE2 activities were measured using the ACE activity assay kit and SensoLyte390 ACE2 activity assay kit (Anaspec, Fremont, CA, United States), respectively, according to the manufacturer’s instructions with some modifications. Briefly, rhACE solution dissolved in deionized water was used for analysis. ACE activity was measured in a reaction system with 50 μl of the sample and 50 μl of the ACE substrate solution with or without BAC (10^–4 to 10^–2 μM). ACE2 activity was assayed in the same manner as ACE activity. All assays were performed every 10 s for 30 min at 37°C using a Varioskan LUX fluorescence microplate reader (Thermo Fisher Scientific, Waltham, MA, United States). The autofluorescence value in each assay was subtracted from the measured values to generate the final results. The relative fluorescence unit of each sample was normalized to the corresponding total protein concentration, which was measured using a Pierce BCA protein assay kit (Thermo Fisher Scientific).

hrACE2 = hrACE2 (Homo sapiens, UniProt Q9BYF1); assay: SensoLyte390 ACE2 activity assay (enzyme kinetics, cell-free); type: biochemical; conditions: EC50 of BMC and BHC could not be determined
Description: as §5

[3] = tested on: spontaneously hypertension rats (SHRs); assay: chronic experiment: blood pressure, heart rate and aorta histology after 14-day oral administration in SHRs; type: in vivo, rat; conditions: once a day, 14 days
Description: as §2, §3, §4
After euthanizing the rats with sodium pentobarbital (100 mg kg^−1, i.p.) administration in combination with isoflurane inhalation, the aortas were harvested directly according to a previously described method. The aortas were fixed in 4% paraformaldehyde for 24 h and embedded in paraffin. The cross-sections (5 μm) were stained with hematoxylin and eosin or subjected to immunostaining. Immunofluorescence staining for ACE and ACE2 was performed according to the manufacturer’s instructions (Servicebio, Wuhan, China).

T2 sequence (P12821 30-1306): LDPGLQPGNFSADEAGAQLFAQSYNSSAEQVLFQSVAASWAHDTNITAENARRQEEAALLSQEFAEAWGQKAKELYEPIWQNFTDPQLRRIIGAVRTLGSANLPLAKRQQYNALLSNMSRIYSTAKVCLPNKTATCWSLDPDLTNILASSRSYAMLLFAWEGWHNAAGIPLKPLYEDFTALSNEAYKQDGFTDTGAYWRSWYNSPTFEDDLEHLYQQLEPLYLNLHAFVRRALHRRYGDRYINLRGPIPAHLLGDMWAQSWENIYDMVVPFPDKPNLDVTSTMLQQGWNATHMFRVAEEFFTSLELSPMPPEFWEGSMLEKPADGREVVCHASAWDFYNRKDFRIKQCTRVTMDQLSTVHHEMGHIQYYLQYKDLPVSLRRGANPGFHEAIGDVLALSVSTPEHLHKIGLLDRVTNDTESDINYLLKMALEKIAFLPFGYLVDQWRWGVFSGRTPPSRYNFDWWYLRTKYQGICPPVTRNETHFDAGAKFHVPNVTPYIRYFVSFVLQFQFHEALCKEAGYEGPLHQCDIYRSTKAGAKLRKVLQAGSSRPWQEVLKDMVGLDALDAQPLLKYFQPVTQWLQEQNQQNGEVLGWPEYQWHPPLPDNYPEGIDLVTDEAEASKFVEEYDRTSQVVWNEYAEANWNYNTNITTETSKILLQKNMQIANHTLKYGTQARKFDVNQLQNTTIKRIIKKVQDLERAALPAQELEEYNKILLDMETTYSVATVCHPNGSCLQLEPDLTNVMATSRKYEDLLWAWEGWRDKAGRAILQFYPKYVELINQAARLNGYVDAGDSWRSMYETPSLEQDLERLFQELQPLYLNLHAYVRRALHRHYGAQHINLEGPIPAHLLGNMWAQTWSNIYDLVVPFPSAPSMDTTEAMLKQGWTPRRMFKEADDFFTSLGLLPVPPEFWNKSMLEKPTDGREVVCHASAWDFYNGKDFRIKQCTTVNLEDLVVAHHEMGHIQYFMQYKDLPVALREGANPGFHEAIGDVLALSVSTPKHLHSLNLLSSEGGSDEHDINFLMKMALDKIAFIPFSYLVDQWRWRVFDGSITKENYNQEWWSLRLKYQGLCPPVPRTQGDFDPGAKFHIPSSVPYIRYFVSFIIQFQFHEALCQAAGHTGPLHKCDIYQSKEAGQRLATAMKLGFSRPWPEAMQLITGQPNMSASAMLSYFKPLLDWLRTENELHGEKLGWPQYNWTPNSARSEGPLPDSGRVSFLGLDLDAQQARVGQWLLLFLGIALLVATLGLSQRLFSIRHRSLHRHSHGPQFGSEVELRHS
rhACE, sequence (P12821 30-1306): as above
hrACE2, sequence (Q9BYF1 18-805): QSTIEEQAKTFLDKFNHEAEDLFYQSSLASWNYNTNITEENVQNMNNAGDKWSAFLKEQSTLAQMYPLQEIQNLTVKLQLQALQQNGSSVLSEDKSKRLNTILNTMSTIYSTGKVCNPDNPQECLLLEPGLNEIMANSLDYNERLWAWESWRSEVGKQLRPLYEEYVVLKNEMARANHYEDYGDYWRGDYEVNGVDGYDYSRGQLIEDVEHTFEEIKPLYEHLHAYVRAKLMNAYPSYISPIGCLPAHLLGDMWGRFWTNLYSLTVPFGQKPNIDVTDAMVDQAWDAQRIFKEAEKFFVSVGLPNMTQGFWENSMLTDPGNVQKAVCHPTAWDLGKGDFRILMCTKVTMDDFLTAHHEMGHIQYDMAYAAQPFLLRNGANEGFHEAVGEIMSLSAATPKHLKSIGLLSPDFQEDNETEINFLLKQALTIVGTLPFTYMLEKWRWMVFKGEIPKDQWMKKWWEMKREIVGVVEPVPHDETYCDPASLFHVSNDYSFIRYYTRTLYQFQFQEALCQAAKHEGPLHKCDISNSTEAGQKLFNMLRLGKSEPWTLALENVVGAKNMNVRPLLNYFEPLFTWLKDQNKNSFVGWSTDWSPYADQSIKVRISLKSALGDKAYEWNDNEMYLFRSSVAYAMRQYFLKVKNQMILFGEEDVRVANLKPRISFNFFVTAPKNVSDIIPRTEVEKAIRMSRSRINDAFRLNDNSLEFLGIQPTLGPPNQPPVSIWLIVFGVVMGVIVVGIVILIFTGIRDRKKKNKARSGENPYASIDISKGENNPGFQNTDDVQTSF
T1 sequence (Q9BYF1 18-805): as above

| Structure (SMILES) | Kd (rhACE2) [µM] | anti-hypertensive effect (in words) [1] | Kd [2] [µM] | effect on ACE activity (in words) (rhACE; IC50 could not be determined) | effect on ACE2 activity (in words) (hrACE2) | blood pressure reduction ([1]; i.v. injection, 6 mg kg^−1) | IC50 (rhACE; 37°C, 30 min) [µM] | heart rate [3] |
| --- | --- | --- | --- | --- | --- | --- | --- | --- |
| COCC12CCC(OC)C34C5CC6(O)C(OC)C(O)C(O)(C5C6OC(=O)c5ccccc5)C(C(OC)C13)C4N(C)C2 (stereo not drawn) [BHC, Benzoylhypaconitine] | 308 | no anti-hypertensive effects | 139 | little effect | weaker pharmacodynamics effects |  |  |  |
| COCC12CN(C)C3C4C(OC)C1C3(C(OC)CC2O)C1CC2(O)C(OC)C(O)C4(O)C1C2OC(=O)c1ccccc1 (stereo not drawn) [BMC, Benzoylmesaconine] | 20.5 | observable anti-hypertensive effects | 53.6 |  | weaker pharmacodynamics effects | approximately 20 mmHg | 0.96 |  |
| C[C@H](CS)C(=O)N1CCC[C@H]1C(=O)O [captopril, reference compound] |  |  |  |  |  |  |  | Heart rate changed |
